Assay results as given in PMC8537445, “D-Peptide-Based Probe for CXCR4-Targeted Molecular Imaging and Radionuclide Therapy” (Pharmaceutics, 2021).
Positions of bridges follow the written chain, without caps; N, C: chain ends. Non-standard residues stand in square brackets, D forms with d. Residues, ends and D or L forms follow the SMILES beside them. Chains are numbered I, II in the order given. *: point of attachment. NOTA = O=C(O)CN1CCN(CC(=O)O)CCN(CC(=O)*)CC1

Legend:
[1] = In vivo radiometabolite analysis in plasma and urine; parameters: species or system mouse; conditions: wild-type mice
Protocol: Plasma samples were obtained by decapitation 15 min p.i. (n = 2). Blood was collected in EDTA tubes and centrifuged for 5 min at 3000× g. Subsequently, plasma was removed and diluted (1:2) with acetonitrile to precipitate all plasma proteins. After centrifugation (5 min at 3000× g), the supernatant was diluted (1:10) with water and filtered (0.22 µm) before injection on radioHPLC. Urine samples were collected 75 min p.i. (n = 3) by gently pressing on the bladder. The collected urine was filtered (0.22 µm) before injection on radioHPLC. Due to low radioactivity concentration in the plasma samples, 30 fractions of 30 s per plasma sample were collected. Radioactivity in the fractions was determined in an automated gamma counter.

[2] = PET/CT imaging in wild-type mice; assay type: in vivo, mouse; conditions: dynamic PET 0–60 min p.i., AMD3100 5 mg/kg
Protocol: Dynamic PET images were acquired for 60 min immediately after intravenous injection using a beta-cube PET scanner (Molecubes, Gent, Belgium). The mice were kept under gas anesthesia during the entire procedure (2.5% isoflurane in O2 at 1 L/min flow rate), with temperature and respiration monitored throughout. After PET scanning, a CT image was acquired for anatomic coregistration with an X-cube CT scanner (Molecubes, Gent, Belgium), using the ‘general’ protocol with the following parameters: 50 kVp, 480 exposures, 85 ms/projection, 100 μA tube current, rotation time 60 s. After scanning, mice were sacrificed 75 min p.i. and a whole-body biodistribution study was performed.
PET data were histogrammed into 14 frames (4 × 15 s, 4 × 1 min, 1 × 5 min, 5 × 10 min) and reconstructed into a 192 × 192 image matrix with 0.4 mm voxels using 30 iterations the native MLEM algorithm with corrections for randoms, scatter, attenuation and decay. CT Data were reconstructed using a regularized statistical (iterative) image reconstruction algorithm using non-negative least squares, using an isotropic 200 μm voxel size and scaled to Hounsfield Units (HUs) after calibration against a standard air/water phantom. […] Radiotracer uptake at 60 min, expressed as SUVmean, was the outcome measure.

[3] = Ex vivo biodistribution in wild-type mice; conditions: mouse, total radioactivity, 75 min p.i., ex vivo gamma counting, mean ± SD
Protocol: The in vivo pharmacokinetics of the selected radioligands were first evaluated in wild-type mice by performing a whole-body biodistribution study. […] Blood and major organs were collected in tared tubes and weighed. Quantification of radioactivity in blood, organs, and other body parts was performed using an automated gamma counter equipped with a 3-inch NaI(Tl) well crystal coupled to a multichannel analyzer, mounted in a sample changer (2480 Wizard^2, Perkin Elmer, Waltham, MA, USA). Counts were corrected for background radiation, physical decay and counter dead time. Results are presented as standardized uptake values (SUV; tissue activity concentration (MBq/g)/[injected dose (MBq)/body weight (g)]).

[4] = tested on: U87.hCXCR4 tumor-bearing mice; assay: Ex vivo biodistribution in U87.hCXCR4 tumor-bearing mice; parameters: species or system mouse; conditions: 75 min p.i., mean ± SD
[5] = as above; parameters: species or system mouse; conditions: female, SCID (CB17.Cg-Prkdc<scid>Lyst<bg-J>/Crl), mouse, iv, total radioactivity, 75 min p.i., mean ± SD
[6] = co-injected AMD3100 5 mg/kg (157 nmol), n = 4
[7] = co-injected DV1-k-(DV3) 7 nmol, n = 3
[8] = co-injected DV1-k-(DV3) 14 nmol, n = 4
[9] = co-injected DV1-k-(DV3) 24 nmol, n = 4
[10] = SUV ratio, co-injected AMD3100 5 mg/kg (157 nmol), n = 4
[11] = SUV ratio, co-injected DV1-k-(DV3) 7 nmol, n = 3
[12] = SUV ratio, co-injected DV1-k-(DV3) 24 nmol, n = 4

CC(C)C[C@@H](N)C(=O)NCC(=O)N[C@H](C)C(=O)N[C@H](CO)C(=O)N[C@H](Cc1c[nH]c2ccccc12)C(=O)N[C@H](Cc1c[nH]cn1)C(=O)N[C@H](CCCNC(=N)N)C(=O)N1CCC[C@@H]1C(=O)N[C@H](CC(=O)O)C(=O)N[C@H](CCCCNC(=O)CN1CCN(CC(=O)O)CCN(CC(=O)O)CC1)C(=O)NCCCC[C@@H](NC(=O)[C@H]1CCCN1C(=O)[C@@H](CC(C)C)NC(=O)[C@H]1CCCN1C(=O)[C@@H](CCCNC(=N)N)NC(=O)[C@@H](CCCCN)NC(=O)[C@@H](CCC(N)=O)NC(=O)[C@@H](Cc1ccc(O)cc1)NC(=O)CNC(=O)[C@@H](CC(C)C)NC(=O)[C@@H](CS)NC(=O)[C@@H](CS)NC(=O)[C@@H](CCCCN)NC(=O)[C@@H](CC(=O)O)NC(=O)[C@H]1CCCN1C(=O)[C@@H](CCCNC(=N)N)NC(=O)[C@@H](Cc1c[nH]cn1)NC(=O)[C@@H](Cc1c[nH]c2ccccc12)NC(=O)[C@@H](CO)NC(=O)[C@@H](C)NC(=O)CNC(=O)[C@H](N)CC(C)C)C(=O)O [[^18F]AlF-NOTA-DV1-k-(DV3)] (I: H-[dL]G[dA][dS][dW][dH][dR][dP][dD][dK][dC][dC][dL]G[dY][dQ][dK][dR][dP][dL][dP][dK]-OH / II: H-[dL]G[dA][dS][dW][dH][dR][dP][dD][dK](NOTA); amide I:22-II:C)
parent (intact) radioligand in plasma ([1]; i.v., plasma 15 min p.i., radioHPLC fractions, gamma counter, n = 2): 86 ± 0.1% | parent (intact) radioligand in urine ([1]; i.v., urine 75 min p.i., radioHPLC, n = 3): 37 ± 2% | polar metabolites in plasma ([1]; plasma 15 min p.i., n = 2): 14 ± 0.1% | polar metabolites in urine ([1]; urine 75 min p.i., n = 3): 63 ± 2% | kidney uptake on co-injection of AMD3100 [2]: increased with a factor of two | liver retention on co-injection of AMD3100 [2]: completely blocked | SUV at 1.25 h ([3]; blood, + AMD3100 5 mg/kg, n: PentixaFor 1, 18F 2, 68Ga 4, 177Lu 3, read-out: blood uptake): 0.5 SUV | SUV at 1.25 h ([3]; blood, tracer alone, n: PentixaFor 3, 18F 5, 68Ga 4, 177Lu 3, read-out: blood uptake): 0.2 ± 0.1 SUV | SUV at 1.25 h ([3]; bone (femur harboring bone marrow), tracer alone, n: PentixaFor 3, 18F 5, 68Ga 4, 177Lu 3, read-out: bone uptake (femur harboring bone marrow)): 0.7 ± 0.4 SUV | SUV at 1.25 h ([3]; brain, + AMD3100 5 mg/kg, n: PentixaFor 1, 18F 2, 68Ga 4, 177Lu 3, read-out: brain uptake): 0.02 SUV | SUV at 1.25 h ([3]; brain, tracer alone, n: PentixaFor 3, 18F 5, 68Ga 4, 177Lu 3, read-out: brain uptake): 0.01 ± 0.003 SUV | SUV at 1.25 h ([3]; heart, + AMD3100 5 mg/kg, n: PentixaFor 1, 18F 2, 68Ga 4, 177Lu 3, read-out: heart uptake): 0.2 SUV | SUV at 1.25 h ([3]; heart, tracer alone, n: PentixaFor 3, 18F 5, 68Ga 4, 177Lu 3, read-out: heart uptake): 0.2 ± 0.1 SUV | SUV at 1.25 h ([3]; kidneys, + AMD3100 5 mg/kg, n: PentixaFor 1, 18F 2, 68Ga 4, 177Lu 3, read-out: kidneys uptake): 35.4 SUV | SUV at 1.25 h ([3]; kidneys, tracer alone, n: PentixaFor 3, 18F 5, 68Ga 4, 177Lu 3, read-out: kidneys uptake): 23.2 ± 3.9 SUV | SUV at 1.25 h ([3]; liver, + AMD3100 5 mg/kg, n: PentixaFor 1, 18F 2, 68Ga 4, 177Lu 3, read-out: liver uptake): 1 SUV | SUV at 1.25 h ([3]; liver, tracer alone, n: PentixaFor 3, 18F 5, 68Ga 4, 177Lu 3, read-out: liver uptake): 7.4 ± 0.5 SUV | SUV at 1.25 h ([3]; lungs, + AMD3100 5 mg/kg, n: PentixaFor 1, 18F 2, 68Ga 4, 177Lu 3, read-out: lungs uptake): 0.8 SUV | SUV at 1.25 h ([3]; lungs, tracer alone, n: PentixaFor 3, 18F 5, 68Ga 4, 177Lu 3, read-out: lungs uptake): 0.8 ± 0.2 SUV | SUV at 1.25 h ([3]; pancreas, + AMD3100 5 mg/kg, n: PentixaFor 1, 18F 2, 68Ga 4, 177Lu 3, read-out: pancreas uptake): 0.1 SUV | SUV at 1.25 h ([3]; pancreas, tracer alone, n: PentixaFor 3, 18F 5, 68Ga 4, 177Lu 3, read-out: pancreas uptake): 0.1 ± 0.02 SUV | SUV at 1.25 h ([3]; spleen, + AMD3100 5 mg/kg, n: PentixaFor 1, 18F 2, 68Ga 4, 177Lu 3, read-out: spleen uptake): 0.9 SUV | SUV at 1.25 h ([3]; spleen, tracer alone, n: PentixaFor 3, 18F 5, 68Ga 4, 177Lu 3, read-out: spleen uptake): 3.2 ± 0.8 SUV | bone uptake [4, 6]: 0.1 ± 0.04 SUV | spleen uptake [4, 6]: 0.5 ± 0.1 SUV | bone uptake ([4]; co-injected AMD3100 5 mg/kg (157 nmol), n = 4, listed as [18F]AlF-NOTA-DV1-k-(DV3)): 0.1 ± 0.04 SUV | bone uptake [4, 7]: 0.2 ± 0.04 SUV | liver uptake [4, 7]: 1.2 ± 0.1 SUV | bone uptake [4, 8]: 0.3 ± 0.1 SUV | liver uptake [4, 8]: 1.2 ± 0.4 SUV | bone uptake [4, 9]: 0.2 ± 0.04 SUV | liver uptake [4, 9]: 0.7 ± 0.1 SUV | tumor-to-blood ratio (t/blood) [4, 10]: 1.7 ± 0.5 | tumor-to-liver ratio (t/liver) [4, 10]: 0.5 ± 0.2 | tumor-to-liver ratio (t/liver) [4, 11]: 0.6 ± 0.1 | tumor-to-muscle ratio (t/muscle) [4, 11]: 5.4 ± 2.2 | tumor-to-muscle ratio (t/muscle) ([4]; SUV ratio, co-injected DV1-k-(DV3) 14 nmol, n = 4): 4.8 ± 2.1 | tumor-to-liver ratio (t/liver) [4, 12]: 0.9 ± 0.2 | tumor-to-muscle ratio (t/muscle) [4, 12]: 3.0 ± 0.4 | SUV at 1.25 h ([5]; blood, co-injected DV1-k-(DV3) 7 nmol, n = 3, read-out: blood uptake): 0.4 ± 0.2 SUV | SUV at 1.25 h ([5]; blood, co-injected DV1-k-(DV3) 14 nmol, n = 4, read-out: blood uptake): 0.5 ± 0.3 SUV | SUV at 1.25 h ([5]; blood, tracer alone (0 nmol), n = 4, read-out: blood uptake): 0.1 ± 0.1 SUV | SUV at 1.25 h ([5]; blood, with AMD3100 5 mg/kg (157 nmol), co-injected, co-injected AMD3100 5 mg/kg (157 nmol), n = 4, read-out: blood uptake): 0.3 ± 0.2 SUV | SUV at 1.25 h ([5]; bone, co-injected AMD3100 5 mg/kg (157 nmol), n = 4, read-out: bone uptake): 0.1 ± 0.04 SUV | SUV at 1.25 h ([5]; bone, co-injected DV1-k-(DV3) 7 nmol, n = 3, read-out: bone uptake): 0.2 ± 0.04 SUV | SUV at 1.25 h ([5]; bone, co-injected DV1-k-(DV3) 14 nmol, n = 4, read-out: bone uptake): 0.3 ± 0.1 SUV | SUV at 1.25 h ([5]; bone, co-injected DV1-k-(DV3) 24 nmol, n = 4, read-out: bone uptake): 0.2 ± 0.04 SUV | SUV at 1.25 h ([5]; bone, tracer alone (0 nmol), n = 4, read-out: bone uptake): 0.4 ± 0.1 SUV | SUV at 1.25 h ([5]; brain, co-injected AMD3100 5 mg/kg (157 nmol), n = 4, read-out: brain uptake): 0.01 ± 0.004 SUV | SUV at 1.25 h ([5]; brain, co-injected DV1-k-(DV3) 7 nmol, n = 3, read-out: brain uptake): 0.02 ± 0.01 SUV | SUV at 1.25 h ([5]; brain, co-injected DV1-k-(DV3) 14 nmol, n = 4, read-out: brain uptake): 0.03 ± 0.01 SUV | SUV at 1.25 h ([5]; brain, co-injected DV1-k-(DV3) 24 nmol, n = 4, read-out: brain uptake): 0.02 ± 0.01 SUV | SUV at 1.25 h ([5]; brain, tracer alone (0 nmol), n = 4, read-out: brain uptake): 0.01 ± 0.001 SUV | SUV at 1.25 h ([5]; heart, co-injected AMD3100 5 mg/kg (157 nmol), n = 4, read-out: heart uptake): 0.1 ± 0.1 SUV | SUV at 1.25 h ([5]; heart, co-injected DV1-k-(DV3) 7 nmol, n = 3, read-out: heart uptake): 0.2 ± 0.1 SUV | SUV at 1.25 h ([5]; heart, co-injected DV1-k-(DV3) 14 nmol, n = 4, read-out: heart uptake): 0.3 ± 0.1 SUV | SUV at 1.25 h ([5]; heart, co-injected DV1-k-(DV3) 24 nmol, n = 4, read-out: heart uptake): 0.2 ± 0.1 SUV | SUV at 1.25 h ([5]; heart, tracer alone (0 nmol), n = 4, read-out: heart uptake): 0.1 ± 0.04 SUV
